This note sets out measurements from PMC3088502 (Bioorganic & medicinal chemistry, 2011).

Assay [1] deals with AKT phosphorylation at Ser473 in BxPC3 cells. Kind of assay: Detection of pAKT. Format: cell-based, Human. Particulars: 10 μM, 4 h.
The test system of a further assay is BxPC3 cells. Kind of assay: Cellular proliferation / cell survival micro-cytotoxicity. Format: cell-based, Human.

As to `CCCCCCCCCCCCc1ccc(S(=O)(=O)Nc2ccccc2)cc1` [Compound 45], in assay [1], the “Inhibition of AKT phosphorylation at Ser473 (pAKT), in words” value is recorded as “did not inhibit the production of pAKT”. In addition, in the assay with BxPC3 cells, the “Inhibition of BxPC-3 cell proliferation, in words” value is “did inhibit BxPC-3 cell proliferation”.
